From ChEMBL document CHEMBL1131658, “Potent cyclic urea HIV protease inhibitors with 3-aminoindazole P2/P2' groups” (Bioorg Med Chem Lett, 1998)

How the values were obtained:
MT2 = test: Compound was evaluated for accumulation of viral RNA transcripts three days after infection of MT-2 cells with HIV-1 RF; type: functional; conditions: Homo sapiens, MT2, 72 h
[1] = target: Human immunodeficiency virus type 1 protease (Human immunodeficiency virus 1, UniProt Q72874); test: The compound was evaluated for inhibition of HIV protease
[2] = Ratio of -logKi with respect to inhibition was evaluated; type: functional
[3] = Half life period was evaluated.; type: ADME
[4] = Maximum concentration of compound in rat was evaluated.; type: ADME, organism-based; conditions: in vivo
[5] = Maximum concentration of compound in dog was evaluated.; type: ADME, organism-based, Canis lupus familiaris; conditions: in vivo
[6] = Percentage Bioavailability was evaluated.; type: ADME, organism-based; conditions: in vivo; read-out: Bioavailabiility

Row | SMILES | IC90 (MT2) | Ki [1] | Ratio [2] | half-life [3] | Cmax [4] | Cmax [5] | bioavailability [6]
1 | O=C1N(Cc2ccc3[nH]c(O)nc3c2)[C@H](Cc2ccccc2)[C@H](O)[C@@H](O)[C@@H](Cc2ccccc2)N1Cc1ccc2[nH]c(O)nc2c1 | > 65000 nM | < 0.01 nM | – | – | – | – | –
2 | CC(C)Nc1[nH]nc2ccc(CN3C(=O)N(Cc4ccc5n[nH]c(NC(C)C)c5c4)[C@H](Cc4ccccc4)[C@H](O)[C@@H](O)[C@H]3Cc3ccccc3)cc12 | 24 nM | 0.09 nM | 2.4 | – | – | – | –
3 | O=C1N(Cc2ccc3[nH]nc(NCC4CC4)c3c2)[C@H](Cc2ccccc2)[C@H](O)[C@@H](O)[C@@H](Cc2ccccc2)N1Cc1ccc2[nH]nc(NCC3CC3)c2c1 | 38 nM | 0.34 nM | 2.1 | – | – | – | –
4 | Nc1[nH]nc2ccc(CN3C(=O)N(Cc4ccc5n[nH]c(N)c5c4)[C@H](Cc4ccccc4)[C@H](O)[C@@H](O)[C@H]3Cc3ccccc3)cc12 | 2760 nM | – | 5.4 | – | – | – | –
5 | O=C1N(Cc2ccc3[nH]nc(N4CCCC4)c3c2)[C@H](Cc2ccccc2)[C@H](O)[C@@H](O)[C@@H](Cc2ccccc2)N1Cc1ccc2[nH]nc(N3CCCC3)c2c1 | 120 nM | 1.3 nM | 2 | – | – | – | –
6 | O=C1N(Cc2ccc3[nH]ncc3c2)[C@H](Cc2ccccc2)[C@H](O)[C@@H](O)[C@@H](Cc2ccccc2)N1Cc1ccc2[nH]ncc2c1 | 8 nM | – | – | 2 h | 30 nM | 1000 nM | 13%
7 | CCCNc1[nH]nc2ccc(CN3C(=O)N(Cc4ccc5n[nH]c(NCCC)c5c4)[C@H](Cc4ccccc4)[C@H](O)[C@@H](O)[C@H]3Cc3ccccc3)cc12 | 40 nM | 0.23 nM | 2.2 | – | – | – | –
8 | Nc1n[nH]c2ccc(CN3C(=O)N(Cc4ccc5[nH]nc(N)c5c4)[C@H](Cc4ccccc4)[C@H](O)[C@@H](O)[C@H]3Cc3ccccc3)cc12 | – | < 0.01 nM | – | – | – | – | –
9 | CCNc1[nH]nc2ccc(CN3C(=O)N(Cc4ccc5n[nH]c(NCC)c5c4)[C@H](Cc4ccccc4)[C@H](O)[C@@H](O)[C@H]3Cc3ccccc3)cc12 | 65 nM | 0.041 nM | 3.2 | – | – | – | –
10 | CNc1[nH]nc2ccc(CN3C(=O)N(Cc4ccc5n[nH]c(NC)c5c4)[C@H](Cc4ccccc4)[C@H](O)[C@@H](O)[C@H]3Cc3ccccc3)cc12 | 279 nM | 0.018 nM | 4.2 | – | – | – | –
